Laboratory results published in patent publication US20210401880A1, “Pharmaceutical Composition For Preventing Or Treating Obesity, Containing CYCLO(HIS-PRO) As Active Ingredient” (Novmetapharma Co., Ltd., priority 2018, published 2021).

Columns and labels:
Assay type in all cases: in vivo, human
[1] = test system: leptin; assay: Clinical trial: plasma leptin level (leptin resistance)
Protocol: (§1) We conducted a clinical trial designed as randomized, placebo-controlled, double-blind, and two-way crossover on drug interaction in patients with type 2 diabetes mellitus. The clinical trial was conducted for 149 patients over a total of 16 weeks, in which the screening period was 2 weeks, the treatment period was 12 weeks, and the period of the evaluation of safety and follow-up was 2 weeks.
(§2) In the screening stage, 64 subjects were selected from 149 participants, and the subjects who met the selection criteria were fasted for 2 hours before and after breakfast each day and subjected to a 2-week evaluation process of measuring and recording blood glucose levels. In the treatment stage, capsules containing placebo or CHP with different doses were randomly administered to 64 selected subjects once a day for 12 consecutive weeks.
(§3) In the above experiment, a capsule containing CHP with a different dose or a placebo corresponding thereto was used, and each subject received a two-week dose (18 capsules=14+4) at one visit and was instructed to take 1 capsule before bedtime every day. In this case, the anti-diabetic drugs and other prescribed drugs currently being used were continuously taken. Each subject was assigned at the same rate as follows and administered with a placebo or a compound with a different dose, respectively. • Administration Group A: 3 mg of CHP+23 mg of zinc—16 subjects • Administration Group B: 9 mg of CHP+23 mg of zinc—16 subjects • Administration Group C: 15 mg of CHP+23 mg of zinc—16 subjects • Administration Group D: placebo (control)—16 subjects
(§4) The present inventors confirmed the improvement of body mass index (BMI) and the improvement of leptin resistance, and the results are shown in Tables 3 and 4.
Leptin is an appetite suppressing protein secreted from adipose cells, and is known as a hormone to act on the brain after being secreted from adipose tissue to suppress appetite and activate metabolism in the body, thereby reducing body weight. In the case of humans, the more obese people (the more adipose tissue), the higher the concentration of leptin in the blood. This indicates the resistance to leptin action.

[2] = Clinical trial: improvement of body mass index (BMI)
Protocol: as §1, §2, §3, §4

[3] = test system: patients with type 2 diabetes mellitus; assay: Clinical trial: evaluation of safety; details: CHP administration groups (3, 9, 15 mg of CHP+23 mg of zinc once a day, 12 weeks) vs placebo
Protocol: as §1, §2
In the above experiment, a capsule containing CHP with a different dose or a placebo corresponding thereto was used, and each subject received a two-week dose (18 capsules=14+4) at one visit and was instructed to take 1 capsule before bedtime every day. In this case, the anti-diabetic drugs and other prescribed drugs currently being used were continuously taken. […]

[4] = test system: glycated hemoglobin (HbA1c); assay: Clinical trial: change in concentration of glycated hemoglobin (HbA1c) over 12 weeks
Protocol: as §1, §2, §3
The present inventors observed the change in concentration of HbA1c during the 12-week dosing period. Since the blood glucose level measured at one time point can change due to various factors, the change in glycated hemoglobin (HbA1c) was checked for the purpose of determining the pattern of long-term glycemic control, and the results are shown in Table 1 and FIG. 1.

[5] = Clinical trial: change in body weight over 12 weeks
Protocol: as §1, §2, §3
The present inventors observed the change in body weight of subjects through the 12-week experiment, and the results are shown in Table 2 and FIG. 2.

[6] = Administration Group A: 3 mg of CHP+23 mg of zinc once a day
[7] = Administration Group A: 3 mg of CHP+23 mg of zinc once a day, Baseline (Week 0)
[8] = Administration Group A: 3 mg of CHP+23 mg of zinc once a day, Week 12
[9] = Administration Group B: 9 mg of CHP+23 mg of zinc once a day
[10] = Administration Group B: 9 mg of CHP+23 mg of zinc once a day, Baseline (Week 0)
[11] = Administration Group B: 9 mg of CHP+23 mg of zinc once a day, Week 12
[12] = Administration Group C: 15 mg of CHP+23 mg of zinc once a day
[13] = Administration Group C: 15 mg of CHP+23 mg of zinc once a day, Baseline (Week 0)
[14] = Administration Group C: 15 mg of CHP+23 mg of zinc once a day, Week 12
[15] = all patient groups receiving CHP (3, 9, 15 mg+23 mg of zinc), 12 weeks

SMILES: O=C1NC(Cc2c[nH]cn2)C(=O)N2CCCC12 (centres unmarked) [CHP, cyclo(his-pro)]
- Plasma leptin level, Change Value (From Week 0 to Week 12), Average [1, 6]: 0.59
- Plasma leptin level, Average [1, 7]: 10.93
- Plasma leptin level, Average [1, 8]: 9.66
- Plasma leptin level, Change Value (From Week 0 to Week 12), Average [1, 9]: −3.42
- plasma leptin level at week 12 compared to the reference value [1, 9]: reduced to a statistically significant level
- Plasma leptin level, Average [1, 10]: 19.85
- Plasma leptin level, Average [1, 11]: 9.90
- Plasma leptin level, Change Value (From Week 0 to Week 12), Average [1, 12]: −3.39
- plasma leptin level at week 12 compared to the reference value [1, 12]: reduced to a statistically significant level
- Plasma leptin level, Average [1, 13]: 12.93
- Plasma leptin level, Average [1, 14]: 10.59
- Body mass index (BMI), Change Value (From Week 0 to Week 12), Average [2, 6]: −0.27 kg/m^2
- Body mass index (BMI), Average [2, 7]: 37.18 kg/m^2
- Body mass index (BMI), Average [2, 8]: 36.45 kg/m^2
- Body mass index (BMI), Change Value (From Week 0 to Week 12), Average [2, 9]: 0.16 kg/m^2
- Body mass index (BMI), Average [2, 10]: 36.29 kg/m^2
- Body mass index (BMI), Average [2, 11]: 36.59 kg/m^2
- Body mass index (BMI), Change Value (From Week 0 to Week 12), Average [2, 12]: −0.28 kg/m^2
- Body mass index (BMI), Average [2, 13]: 37.23 kg/m^2
- Body mass index (BMI), Average [2, 14]: 37.48 kg/m^2
- side effects (evaluation of safety) [3]: mild and moderate side effects that are not related to the CHP were observed
- HbA1c, Change Value (From Week 0 to Week 12), Average [4, 6]: −0.21%
- level of HbA1c at week 12 versus Administration Group D (control) [4, 6]: lower than that of Administration Group D
- HbA1c, Average ([4]; Administration Group A: 3 mg of CHP+23 mg of zinc once a day, Baseline (Week 0), type 2 diabetes patients): 8.25%
- HbA1c, Average [4, 8]: 8.04%
- HbA1c, Change Value (From Week 0 to Week 12), Average [4, 9]: −0.17%
- level of HbA1c at week 12 versus Administration Group D (control) [4, 9]: lower than that of Administration Group D
- HbA1c, Average [4, 10]: 8.06%
- HbA1c, Average [4, 11]: 7.90%
- HbA1c, Change Value (From Week 0 to Week 12), Average [4, 12]: −0.43%
- level of HbA1c over time (FIG. 1) [4, 12]: reduced consistently until week 8
- HbA1c, Average [4, 13]: 8.49%
- HbA1c, Average [4, 14]: 8.08%
- level of HbA1c compared to the control [4, 15]: reduced compared to the control
- Body weight, Change Value (From Week 0 to Week 12), Average [5, 6]: -0.73 kg
- Body weight, Average [5, 7]: 109.11 kg
- Body weight, Average [5, 8]: 108.28 kg
- Body weight, Average [5, 10]: 103.56 kg
- Body weight, Average [5, 11]: 105.19 kg
- Body weight, Change Value (From Week 0 to Week 12), Average [5, 12]: -0.92 kg
- body weight over time (FIG. 2) [5, 12]: reduced consistently until week 12
- Body weight, Average [5, 13]: 103.94 kg
- Body weight, Average [5, 14]: 104.12 kg
- weight gain / body weight compared to the control [5, 15]: less than the control, or the body weight was reduced
